Source: patent US8329685B1, “Enhancement of the action of anti-infective agents and of central and peripheral nervous system agents and transportation of nucleic acid substances” (priority 2001, dated 2012)

Test system: M.Tb. drug resistant strain TV25
Format: cell-based, Mycobacterium tuberculosis

Which “additional effectiveness of INH in the presence of MZL” value does the source give for `NNC(=O)c1ccncc1` [INH, Isoniazid] here?
The value was 41.5%.

What about the “effect of INH alone” value (without MZL) of the same compound?
The value was “no effect”.
